According to patent publication US20220169654A1, “New Organic Compounds” (Servier Pharmaceuticals LLC, priority 2020, published 2022):

Assays:
MAT2A homodimer = biological target: T1, MAT2A homodimer (Homo sapiens, UniProt P31153); test: MAT2A inhibition (biochemical, liberated phosphate, PiColorLock Gold); settings: recombinant MAT2A homodimer; IC50 bin with Max Inh.; read-out: Enzyme Inhibition Bin
T1 construct: inferred from Ni sepharose purification with imidazole elution; made in house; host or cells: Sf9 insect cells, baculovirus (Bac to Bac, pFASTBAC1)
Outline: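 Baculovirus/Sf9-expressed, Ni-purified MAT2A (4 μg/mL) preincubated with compound 60 min at 25 °C in Tris pH 8.0/KCl/MgCl2 buffer. Reaction started with 500 μM ATP and 400 μM L-methionine (substrate-mix concentrations), run 60 min at 25 °C. Phosphate measured colorimetrically against a phosphate standard curve to give IC50.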

[1] = system: SAM in HCT116 human colon carcinoma cell line with MTAP gene deleted (MTAP −/−); test: Cellular assay of target engagement (SAM), LC-MS/MS, 72 hrs; format: cell-based; settings: HCT-116, IC50 bin with Max Inh., read-out: Cell 72 h SAM Inhibition (MTAP −/−)
Procedure: Measurement of MAT2A activity in cells was made by direct quantitation of the abundance of the product of its enzymatic activity, SAM. Cancer cells were treated with candidate MAT2A inhibitors for a suitable incubation period, and the cells were then lysed using a reagent which quenched any further enzyme activity. Soluble metabolites including SAM were collected and SAM itself was directly measured from the lysate using quantitative LC-MS/MS.
A typical assay was performed using an HCT116 human colon carcinoma cell line which was genetically engineered to delete the MTAP gene (commercially available from Horizon Discovery). This cell line was utilized because it was determined that loss of the MTAP gene predicts sensitivity to MAT2A inhibitors. Cells were plated in 96-well dishes at appropriate cell density. Following 24 hours, cells were then treated with the candidate MAT2A inhibitor. Prior to addition to cells, the compound was first serially diluted in 100% DMSO, typically as a 3-fold serial dilution starting at 500× top dose with 10 dose points including DMSO only control. Compound was then transferred to a working stock plate in cell culture media by adding 5 μL of compound in DMSO to 495 μL of cell culture media. This working stock was then added to cells via a further 5-fold dilution, by adding 25 μL of working stock to 100 μL of cells in culture media. Following compound addition, cells were incubated at 37° C./5% CO2 for 72 hrs.
To quantitate SAM levels following compound treatment, cells were gently washed once in ammonium carbonate buffer (75 mM at pH 7.4), placed on dry ice, and lysed with metabolite extraction buffer (80% cold methanol and 20% water (v/v) with acetic acid at 1M final concentration with 200 ng/mL deuterated d3-SAM as internal control). Following centrifugation at 4° C. at 3,200 rpm for 30 minutes, the supernatant was collected and stored at −80° C. until analysis by Liquid Chromatography with tandem Mass Spectrometry (LC-MS/MS). LC-MS/MS analysis was performed using an API6500 Mass Spectrometer (Sciex, Framingham, Mass., USA) operating in positive ion spray mode and equipped with a Waters UPLC Acquity (Waters, Milford, Mass., USA) BEH Amide column. Multiple Reaction Monitoring data was acquired for SAM and the d3-SAM standard, using a mass transition pair at m/z 399.2→250.1 and 402.2→250.1, respectively. In a typical LC-MS/MS analysis, the initial flow rate was 0.5 ml/min of 25% mobile phase A (acetonitrile and water at 5:95 (v/v) with 1% formic acid and 10 mM ammonium acetate) and 75% mobile phase B (acetonitrile and water at 95:5 (v/v) with 1% formic acid and 10 mM ammonium acetate), 0.2-0.5 minutes with 75%-35% mobile phase B, 25%-65% mobile phase A, at 0.5 min 65% mobile phase A and 35% mobile phase B, 1.0-1.1 minutes with 35%-75% mobile phase B, 65%-25% mobile phase A, at 1.1 min 25% mobile phase A and 75% mobile phase B with a total run time of 1.5 minutes.
Specific compounds disclosed herein were tested in the foregoing assay and they were determined to inhibit SAM with an IC50. See, Table 1 below.

HCT116 MTAP−/− = test: Inhibition of cellular proliferation, 4 days, Cell Titer Glo, HCT116 MTAP−/−; format: cell-based; settings: Homo sapiens, HCT-116, 96 h, IC50 bin with Max Inh., read-out: 4 Day Relative Growth Inhibition (MTAP −/−)
Procedure: (§1) Test compound impact on cancer cell growth was assessed by treating cancer cells with compound for 4 days and then measuring proliferation using an ATP-based cell proliferation readout (Cell Titer Glo, Promega Corporation).
(§2) In a typical assay an isogenic pair of HCT116 human colon carcinoma cell lines which vary only in MTAP deletion status (HCT116 MTAP+/+ and HCT116 MTAP−/−) were plated in 96-well dishes at appropriate cell density. Following 24 hours, cells were then treated with the candidate MAT2A inhibitor. Prior to addition to cells, the compound was first serially diluted in 100% DMSO, typically as a 3-fold serial dilution starting at 500× top dose with 10 dose points including DMSO only control. Compound was then transferred to a working stock plate in cell culture media by adding 5 μL of compound in DMSO to 495 μL of cell culture media. This working stock was then added to cells via a further 5-fold dilution, by adding 25 μL of working stock to 100 μL of cells in culture media. Following compound addition, cells were incubated at 37° C./5% CO2 for 4 days.
(§3) To measure inhibition of cellular proliferation, cells were allowed to equilibrate to room temperature for 30 minutes, and were then treated with 125 μL of Cell Titer Glo reagent. The plate was then covered with aluminum foil and shaken for 15 minutes to ensure complete mixing and full cell lysis. Luminescent signal was then measured using a plate-based luminometer Veritas version 1.9.2 using ATP standard curve to confirm assay reproducibility from run to run. This luminescence measure was converted to a proliferation index by subtracting from each data point the ATP luminescence signal measured from a bank (no cells) well and dividing by the ATP luminescence signal measured in 0.2% DMSO control well adjusted for signal in blank well. Compound activity was then represented as a percentage change in proliferation relative to a within-plate DMSO control against log 10 of compound concentration in molar (M) units.
(§4) Specific compounds disclosed herein were tested in the foregoing assay and they were determined to inhibit cellular proliferation with an IC50. See, Table 1 below.

HCT116 MTAP+/+ = test: Inhibition of cellular proliferation, 4 days, Cell Titer Glo, HCT116 MTAP+/+; format: cell-based; settings: Homo sapiens, HCT-116, 96 h, IC50 bin with Max Inh., read-out: 4 Day Relative Growth Inhibition (MTAP +/+)
Procedure: as §1, §2, §3, §4

T1 sequence (P31153 whole entry): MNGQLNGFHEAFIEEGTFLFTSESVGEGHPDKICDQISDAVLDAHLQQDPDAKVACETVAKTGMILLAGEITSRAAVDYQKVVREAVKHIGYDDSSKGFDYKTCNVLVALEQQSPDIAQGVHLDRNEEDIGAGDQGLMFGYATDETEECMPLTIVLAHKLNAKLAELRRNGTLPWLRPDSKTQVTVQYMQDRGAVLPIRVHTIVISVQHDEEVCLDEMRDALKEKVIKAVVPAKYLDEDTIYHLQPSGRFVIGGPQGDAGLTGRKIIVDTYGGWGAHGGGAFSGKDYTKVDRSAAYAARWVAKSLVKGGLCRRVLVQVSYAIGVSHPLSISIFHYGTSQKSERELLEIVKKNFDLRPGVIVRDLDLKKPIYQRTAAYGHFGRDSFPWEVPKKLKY

| Structure (SMILES) | IC50 (MAT2A homodimer) [nM] | IC50 [1] [nM] | IC50 (HCT116 MTAP−/−) [nM] | IC50 (HCT116 MTAP+/+) [nM] |
| --- | --- | --- | --- | --- |
| Cn1cc2cc(-n3nc4c(C#N)cn(CC5CC5)c4c(-c4ccc5[nH]cc(C#N)c5c4)c3=O)ccc2n1 [Example 130, 4-(3-cyano-1H-indol-5-yl)-5-(cyclopropylmethyl)-2-(2-methyl-2H-indazol-5-yl)-3-oxo-3,5-dihydro-2H-pyrrolo[3,2-c]pyridazine-7-carbonitrile] | < 100 | < 100 | 100 to 1000 | > 1000 |
| [2H]C([2H])([2H])Oc1ccc(-n2nc3c(C#N)cn(CC4CC4)c3c(-c3ccc(C)nc3)c2=O)cc1 [Example 131, 5-(cyclopropylmethyl)-2-(4-(methoxy-d3)phenyl)-4-(6-methylpyridin-3-yl)-3-oxo-3,5-dihydro-2H-pyrrolo[3,2-c]pyridazine-7-carbonitrile] | < 100 | < 100 | 100 to 1000 | > 1000 |
| [2H]C([2H])([2H])Oc1ccc(-n2nc3ccn(CC4CC4)c3c(-c3ccc(C(F)F)nc3)c2=O)cc1 [Example 132, 5-(cyclopropylmethyl)-4-(6-(difluoromethyl)pyridin-3-yl)-2-(4-(methoxy-d3)phenyl)-2,5-dihydro-3H-pyrrolo[3,2-c]pyridazin-3-one] | < 100 | 100 to 1000 | 100 to 1000 | > 1000 |
| Cn1cc2cc(-n3nc4c(C#N)cn(CC(F)(F)F)c4c(-c4ccc(C5CC5)nc4)c3=O)ccc2n1 [Example 133, 4-(6-cyclopropylpyridin-3-yl)-2-(2-methyl-2H-indazol-5-yl)-3-oxo-5-(2,2,2-trifluoroethyl)-3,5-dihydro-2H-pyrrolo[3,2-c]pyridazine-7-carbonitrile] | < 100 | 100 to 1000 | 100 to 1000 | > 1000 |
| [2H]C([2H])([2H])Oc1ccc(-n2nc3ccn(CC4CC4)c3c(-c3ccc(C)nc3)c2=O)cc1 [Example 134, 5-(cyclopropylmethyl)-2-(4-(methoxy-d3)phenyl)-4-(6-methylpyridin-3-yl)-2,5-dihydro-3H-pyrrolo[3,2-c]pyridazin-3-one] | < 100 | < 100 | 100 to 1000 | > 1000 |
| CCc1ccc(-c2c(=O)n(-c3ccc4nn(C)cc4c3)nc3ccn(CC4CC4)c23)cn1 [Example 135, 5-(cyclopropylmethyl)-4-(6-ethylpyridin-3-yl)-2-(2-methyl-2H-indazol-5-yl)-2,5-dihydro-3H-pyrrolo[3,2-c]pyridazin-3-one] | < 100 | < 100 | < 100 | 100 to 1000 |
| CCc1ccc(-c2c(=O)n(-c3ccc4nn(C)cc4c3)nc3c(C#N)cn(CC4CC4)c23)cn1 [Example 136, 5-(cyclopropylmethyl)-4-(6-ethylpyridin-3-yl)-2-(2-methyl-2H-indazol-5-yl)-3-oxo-3,5-dihydro-2H-pyrrolo[3,2-c]pyridazine-7-carbonitrile] | < 100 | < 100 | < 100 | 100 to 1000 |
| [2H]C([2H])([2H])Oc1ccc(-n2nc3c(C#N)cn(CC4CC4)c3c(-c3ccc(C(F)F)nc3)c2=O)cc1 [Example 137, 5-(cyclopropylmethyl)-4-(6-(difluoromethyl)pyridin-3-yl)-2-(4-(methoxy-d3)phenyl)-3-oxo-3,5-dihydro-2H-pyrrolo[3,2-c]pyridazine-7-carbonitrile] | < 100 | 100 to 1000 | 100 to 1000 | > 1000 |
| Cn1cc2cc(-n3nc4c(C#N)cn(CC5CC5)c4c(-c4ccc(C5CC5)cc4)c3=O)ccc2n1 [Example 138, 5-(cyclopropylmethyl)-4-(4-cyclopropylphenyl)-2-(2-methyl-2H-indazol-5-yl)-3-oxo-3,5-dihydro-2H-pyrrolo[3,2-c]pyridazine-7-carbonitrile] | < 100 | < 100 | < 100 | > 1000 |

Further lines, results first:

| IC50 (MAT2A homodimer) [nM] | IC50 [1] [nM] | IC50 (HCT116 MTAP−/−) [nM] | IC50 (HCT116 MTAP+/+) [nM] | Structure (SMILES) |
| --- | --- | --- | --- | --- |
| < 100 | < 100 | < 100 | 100 to 1000 | Cn1cc2cc(-n3nc4ccn(CC5CC5)c4c(-c4ccc(C(F)F)nc4)c3=O)ccc2n1 [Example 123, 5-(cyclopropylmethyl)-4-(6-(difluoromethyl)pyridin-3-yl)-2-(2-methyl-2H-indazol-5-yl)-2,5-dihydro-3H-pyrrolo[3,2-c]pyridazin-3-one] |
| < 100 | < 100 | 100 to 1000 | > 1000 | [2H]C([2H])([2H])Oc1ccc(-n2nc3c(C#N)cn(CC4CC4)c3c(-c3ccc(C4CC4)nc3)c2=O)cc1 [Example 124, 5-(cyclopropylmethyl)-4-(6-cyclopropylpyridin-3-yl)-2-(4-(methoxy-d3)phenyl)-3-oxo-3,5-dihydro-2H-pyrrolo[3,2-c]pyridazine-7-carbonitrile] |
| < 100 | < 100 | 100 to 1000 | > 1000 | CCCn1cc(C#N)c2nn(-c3ccc4nn(C)cc4c3)c(=O)c(-c3ccc(C4CC4)nc3)c21 [Example 127, 4-(6-cyclopropylpyridin-3-yl)-2-(2-methyl-2H-indazol-5-yl)-3-oxo-5-propyl-3,5-dihydro-2H-pyrrolo[3,2-c]pyridazine-7-carbonitrile] |
| < 100 | < 100 | 100 to 1000 | > 1000 | CC(C)c1ccc(-c2c(=O)n(-c3ccc4nn(C)cc4c3)nc3c(C#N)cn(CC4CC4)c23)cn1 [Example 128, 5-(cyclopropylmethyl)-4-(6-isopropylpyridin-3-yl)-2-(2-methyl-2H-indazol-5-yl)-3-oxo-3,5-dihydro-2H-pyrrolo[3,2-c]pyridazine-7-carbonitrile] |
| < 100 | 100 to 1000 | < 100 | > 1000 | CC(C)c1ccc(-c2c(=O)n(-c3ccc4nn(C)cc4c3)nc3ccn(CC4CC4)c23)cn1 [Example 129, 5-(cyclopropylmethyl)-4-(6-isopropylpyridin-3-yl)-2-(2-methyl-2H-indazol-5-yl)-2,5-dihydro-3H-pyrrolo[3,2-c]pyridazin-3-one] |
